In patent US11357728B2, “Liposome having inner water phase containing sulfobutyl ether cyclodextrin salt” (CSPC ZHONGQI PHARMACEUTICAL TECHNOLOGY (SHIJIAZHUANG) CO., …, priority 2009, dated 2022):

Assays:
[1] = tested on: KM mice; assay: Toxicity of liposomal formulations in KM mice
[2] = tested on: Prostate RM-1 Tumor Model; assay: Anti-tumor efficacies of topotecan liposomes on prostate RM-1 tumor model; assay type: in vivo, female C57 mice; details: single i.v. 10 mg/kg; for Tumor volume (mm^3): n = 10, x ± sd
Description: RM-1 […] cancer cells were collected, and diluted with 1640 medium. After dilution, the tumor cell number was modulated to 2.0×10^6 cells/ml. 0.2 mL of the tumor cell suspension containing about 4×10^5 tumor cells was inoculated into forward limb oxter subcutaneous tissue of female C57 mice under aseptic condition. Twelve days after inoculation, mice were randomized by tumor volume into groups and administered with a single i.v. injection at a dose of 10 mg/kg.
The mice were bred normally after administration. Tumor diameters were measured to dynamically evaluate anti-tumor efficacies of different formulations. Tumor volume (TV) was calculated with the following formula: TV=½×a×b^2, in which a and b represent length and width, respectively.
The tumor volumes were calculated by using the measurement results. The experiment data were analyzed using SPSS 11.5 statistics software.

[3] = dosage level 40.6 mg/kg topotecan, two female KM mice per group, 14 days

CC[C@@]1(O)C(=O)OCc2c1cc1n(c2=O)Cc2cc3c(CN(C)C)c(O)ccc3nc2-1 [Free topotecan, topotecan]
Number of Animals with >15% weight loss ([1]; dosage level 32.5 mg/kg topotecan, two female KM mice per group, 14 days): 1 | Number of Animals with >15% weight loss [1, 3]: 2 | number of dead animals [1, 3]: 1 | order of toxicity ([1]; topotecan formulations, KM mice): free topotecan<liposome having SBE-CD/TA as inner water phase<liposome having sucrose octasulfate as inner water phase | suppression of tumor growth in comparison with 5% glucose for injection as control ([2]; RM-1 tumor model): did not significantly suppress the growth of tumor | Tumor volume (mm^3) ([2]; day 0 after administration): 223.0 ± 65.7 mm^3 | Tumor volume (mm^3) ([2]; day 2 after administration): 484.0 ± 154.7 mm^3 | Tumor volume (mm^3) ([2]; day 4 after administration): 606.0 ± 183.1 mm^3 | Tumor volume (mm^3) ([2]; day 6 after administration): 1060.7 ± 393.0 mm^3 | Tumor volume (mm^3) ([2]; day 8 after administration): 1301.8 ± 563.7 mm^3 | Tumor volume (mm^3) ([2]; day 9 after administration): 1628.5 ± 835.4 mm^3 | Tumor volume (mm^3) ([2]; day 13 after administration): 3592.9 ± 1523.5 mm^3 | Tumor volume (mm^3) ([2]; day 15 after administration): 6639.3 ± 2388.2 mm^3
